8 compounds from US10377717B2, “Farnesoid X receptor agonists and uses thereof” (Metacrine, Inc., priority 2015, dated 2019) can be followed below.

As usually defined, the pEC50 is −log10 of the EC50, conventionally taken in molar units. Low values mean a large EC50, high ones a small EC50.

Test [1] has as its target T1, hFXR (Homo sapiens (Human), UniProt Q96RI1). Nature of the test: In Vitro FXR Assay (TK), luciferase reporter in transfected CV-1 cells. The test is classed as cell-based. The settings on record: TK-ECRE-luc reporter, hFXR/hRXR, 18 hrs, maximum efficacy <25% of Fexaramine control classified as '+'. A digest of the protocol:
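Reporter transactivation by hFXR was measured in CV-1 cells carrying hRXR and a TK-ECRE-luc construct, with compound treatment for 18 h before lysis and luminescence detection.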
(In general: In a reporter assay the amount or activity of a reporter protein is the signal.)

The target in test [2] is T1, hFXR. Nature of the test: In Vitro FXR Assay (PGL3), luciferase reporter in transfected CV-1 cells. Type of test: cell-based. The conditions noted are these: PGL3-ECRE*6-luc reporter, hFXR/hRXR, 18 hrs incubation. As to the method: CV-1 cells were seeded at a density of 2,000,000 cells in a T175 flask with DMEM+10% charcoal double-stripped FBS and incubated at 37° C. in a 5% CO2 for 18 h (O/N).
After 18 h of incubation, the medium in the T175 flask was changed with fresh DMEM+10% charcoal super-stripped serum.
To prepare the transfection reaction mixture, the transfection reagent (X-tremeGENE HP from Roche, Cat #06 366 236 001) was added in to a 1.5 mL microcentrifuge tube labelled “A” at a ratio of 1:3 (DNA in μg: transfection reagent in μL). OptiMEM medium (Life Technologies, Cat #31985-062) was added accordingly to provide a total volume of 1 mL. The transfection reaction mixture was then briefly vortexed and incubated at room temperature for 5 minutes.
In a separate 1.5 mL microcentrifuge tube labelled “B”, 100 μL OptiMEM and plasmids XPD90Gal pCMXhFXRfl, pCMXhRXRfl+PGL3-ECRE*6-luc+CMX-YFP in the ratio 2 μg: 2 μg:18 μg:3 μg were added. This microcentrifuge tube “B” was then briefly vortexed and incubated at room temperature for 5 minutes.
The total volume in tube labelled “A” was then transferred in to tube labelled “B.” The mixture was then briefly vortexed and the transfection:DNA complex was then incubated for about 15-20 minutes at room temperature.
Following incubation, the transfection reagent/DNA mixture complex was then added to cells in the T175 flask and the cells were incubated at […] (O/N) at 37° C. in 5% CO2.
In a 96 well plate, a half logarithmic serial dilution was prepared. OptiMEM was used as the diluent. Using any of one of the compounds described herein, a compound stock solution of 10 mM was prepared. An initial 1:100 dilution was made into the first well for a final concentration of 100 μM. The final concentrations in the 96-well plate was prepared by using a multichannel pipette to transfer 5 μL of the diluted compound to 384-well plate in quadruplicate.
Cells in T175 flask were trypsinized and cells were resuspending in 40 mL phenol red free DMEM+10% charcoal super-stripped FBS. Typically, one T175 flask was sufficient to seed two 384 well plates. CV-1 cells were seeded at 45 μL cell suspension/well using a multichannel pipet or a 384 multidrop dispenser. The cells were then incubated for 18 hrs, overnight.
After removing the plates from the incubator, the medium was flicked out of plate and 384 well plate was turned upside down onto paper towel. The remaining medium was gently tapped out. 15 μL lysis buffer was then added to each well using a multichannel pipet or a 384 well multi-drop dispenser. After incubation for 10 minutes at room temperature on shaker, 30 μL Luciferase buffer was added to each well. Luminescence counts were taken immediately using the Perkin Elmer Envision.
The ability of the compounds disclosed herein to […] FXR activity was quantified and the respective EC50 value was determined. Fex=fexaramine.

pEC50: −log10 of the molar value. A value given as a limit tells only on which side of the number the result lay.

T1 sequence (Q96RI1 whole entry): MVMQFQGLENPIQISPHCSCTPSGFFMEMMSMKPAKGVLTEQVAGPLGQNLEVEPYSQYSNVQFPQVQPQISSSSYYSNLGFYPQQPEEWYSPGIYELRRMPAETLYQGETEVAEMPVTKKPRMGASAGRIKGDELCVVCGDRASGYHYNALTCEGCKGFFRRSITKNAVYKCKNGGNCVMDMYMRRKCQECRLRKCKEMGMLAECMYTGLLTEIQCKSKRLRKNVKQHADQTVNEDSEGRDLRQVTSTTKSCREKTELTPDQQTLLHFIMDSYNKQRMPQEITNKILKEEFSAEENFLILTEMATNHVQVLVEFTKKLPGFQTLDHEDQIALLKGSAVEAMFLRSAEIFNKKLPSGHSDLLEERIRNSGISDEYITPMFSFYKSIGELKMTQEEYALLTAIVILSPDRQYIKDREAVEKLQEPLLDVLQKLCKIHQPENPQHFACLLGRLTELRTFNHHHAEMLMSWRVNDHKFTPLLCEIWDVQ
T1 sequence (P19793 whole entry partner): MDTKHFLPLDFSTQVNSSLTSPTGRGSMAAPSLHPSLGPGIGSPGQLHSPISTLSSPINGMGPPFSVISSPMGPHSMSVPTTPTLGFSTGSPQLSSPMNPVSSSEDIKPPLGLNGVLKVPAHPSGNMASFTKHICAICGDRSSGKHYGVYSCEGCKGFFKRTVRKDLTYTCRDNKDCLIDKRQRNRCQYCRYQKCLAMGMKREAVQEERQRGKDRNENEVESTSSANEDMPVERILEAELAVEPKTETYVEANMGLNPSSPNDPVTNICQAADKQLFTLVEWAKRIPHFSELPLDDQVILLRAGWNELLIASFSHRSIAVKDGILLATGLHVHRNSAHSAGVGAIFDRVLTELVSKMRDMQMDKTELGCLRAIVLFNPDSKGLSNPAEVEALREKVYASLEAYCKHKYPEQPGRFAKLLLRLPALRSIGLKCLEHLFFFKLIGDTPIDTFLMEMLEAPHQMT

`COC(=O)c1ccc2c(N(Cc3ccc(-c4ccc(N(C)C)cc4)cc3)C(=O)C3CCCCC3)cccc2c1` [Compound 8, Methyl 5-(N-((4′-(dimethylamino)-[1,1′-biphenyl]-4-yl)methyl)cyclohexanecarboxamido)-2-naphthoate] gave a negative-log EC50 (pEC50) in test [1] of 5.00 to 6.00. Also, in test [2], the “Cmpd/Fex (ratio of the EC50 for the test compound relative to the EC50 of the Fexaramine control)” value is given as “++ (‘++’ means Cmpd/Fex > 10 & < 100)”.

Take `COC(=O)/C=C/c1ccnc(N(Cc2ccc(-c3ccc(N(C)C)nc3)cc2)C(=O)C2CCOCC2)c1` [Compound 6, (E)-Methyl 3-(2-(N-(4-(6-(dimethylamino)pyridin-3-yl)benzyl)tetrahydro-2H-pyran-4-carboxamido)pyridin-4-yl)acrylate]: the pEC50 in test [1] was 5.00 to 6.00. Moreover, the “Cmpd/Fex (ratio of the EC50 for the test compound relative to the EC50 of the Fexaramine control)” value in test [2] is “+ (‘+’ means Cmpd/Fex > 100)”.

The compound `COC(=O)/C=C/c1ccnc(N(Cc2ccc(-c3ccc(N(C)C)nc3)cc2)C(=O)[C@H]2CC[C@H](O)CC2)c1` [Compound 7, (E)-Methyl 3-(2-(trans-N-(4-(6-(dimethylamino)pyridin-3-yl)benzyl)-4-hydroxycyclohexanecarboxamido)pyridin-4-yl)acrylate] showed a pEC50 in test [1] of 5.00 to 6.00. In addition, the “Cmpd/Fex (ratio of the EC50 for the test compound relative to the EC50 of the Fexaramine control)” value in test [2] is reported as “+ (‘+’ means Cmpd/Fex > 100)”.

In test [1], `COC(=O)/C=C/c1cccc(N(Cc2ccc(-c3ccc(N(C)C)cc3)cc2)C(=O)C2CCCCC2)n1` [Compound 2, (E)-Methyl 3-(6-(N-((4′-(dimethylamino)-[1,1′-biphenyl]-4-yl)methyl)cyclohexanecarboxamido)pyridin-2-yl)acrylate] gave a pEC50 of at most 5.00. In test [2], the “Cmpd/Fex (ratio of the EC50 for the test compound relative to the EC50 of the Fexaramine control)” value was “++ (‘++’ means Cmpd/Fex > 10 & < 100)”.

Turning to `CN(C)c1ccc(-c2ccc(CN(C(=O)C3CCCCC3)c3cccc4ccccc34)cc2)cc1` [Compound 9, N′-((4′-(Dimethylamino)-[1,1′-biphenyl]-4-yl)methyl)-N-(naphthalen-1-yl)cyclohexanecarboxamide], the pEC50 in test [1] was at most 5.00. Also, the “Cmpd/Fex (ratio of the EC50 for the test compound relative to the EC50 of the Fexaramine control)” value in test [2] is on record as “++ (‘++’ means Cmpd/Fex > 10 & < 100)”.

Regarding `COC(=O)/C=C/c1ccnc(N(Cc2ccc(-c3ccc(N(C)C)cc3)cc2)C(=O)C2CCOCC2)c1` [Compound 4, (E)-Methyl 3-(2-(N-((4′-(dimethylamino)-[1,1′-biphenyl]-4-yl)methyl)tetrahydro-2H-pyran-4-carboxamido)pyridin-4-yl)acrylate], in test [1], the pEC50 is 5.00 to 6.00. In addition, the “Cmpd/Fex (ratio of the EC50 for the test compound relative to the EC50 of the Fexaramine control)” value in test [2] is recorded as “+++ (‘+++’ means Cmpd/Fex < 10)”.

Compound `COC(=O)/C=C/c1cc(N(Cc2ccc(-c3ccc(N(C)C)cc3)cc2)C(=O)C2CCCCC2)ccn1` [Compound 3, (E)-Methyl 3-(4-(N-((4′-(dimethylamino)-[1,1′-biphenyl]-4-yl)methyl)cyclohexanecarboxamido)pyridin-2-yl)acrylate] showed a pEC50 in test [1] of 5.00 to 6.00. Further, in test [2], the “Cmpd/Fex (ratio of the EC50 for the test compound relative to the EC50 of the Fexaramine control)” value is “+++ (‘+++’ means Cmpd/Fex < 10)”.

In the case of `COC(=O)/C=C/c1ccnc(N(Cc2ccc(-c3ccc(N(C)C)cc3)cc2)C(=O)C2CCCCC2)c1` [Compound 1, (E)-Methyl 3-(2-(N-((4′-(dimethylamino)-[1,1′-biphenyl]-4-yl)methyl)cyclohexanecarboxamido)pyridin-4-yl)acrylate], the pEC50 in test [1] was at least 6.00. In test [2], the “Cmpd/Fex (ratio of the EC50 for the test compound relative to the EC50 of the Fexaramine control)” value is “+++ (‘+++’ means Cmpd/Fex < 10)”.
